The values that follow come from article PMC4383003, “Transfer hydrogenation catalysis in cells as a new approach to anticancer drug design” (Nature Communications, 2015).

Series [1] deals with A2780 ovarian cancer cells. In words: Ruthenium accumulation in cancer cells (ICP-MS). Format: cell-based, human. On the procedure: Briefly, 1.5 × 10^6 cells per well were seeded on a six-well plate. […] After this time, cells were washed, treated with trypsin-EDTA, counted and cell pellets were collected. Each pellet was digested overnight in concentrated nitric acid (73%) at 353 K; the resulting solutions were diluted using double-distilled water to give a final concentration of 5% HNO3 and the amount of Ru taken up by the cells was determined by ICP–MS. […]
Supplementary Table 3: Antiproliferative activity of complexes 1-8 in A2780 ovarian cancer cells and their cellular accumulation (expressed as ng Ru per million cells).
The latter experiments were carried out using equipotent concentrations of the […]
experiments were performed as duplicates of triplicates in independent experiments and the error bars were calculated as the standard deviation from the mean. […]

Series [2] is described as follows: Transfer hydrogenation of NAD+ to 1,4-NADH with formate, followed by 1H NMR. To be noted: NAD+ 2 mol equiv, formate 25 mol equiv, 310 K, pH* 7.2. On the procedure: Complexes 1–7 were dissolved in MeOH-d4/D2O (5:1 v/v, 1.4 mM, 4 ml). Solutions of sodium formate (35 mM, 4 ml) and NAD^+ in D2O (2.8 mM, 2 ml) were also prepared and incubated at 310 K. In a typical experiment, 200-μl aliquots of each solution were added to a 5-mm NMR tube and the pH* adjusted to 7.2±0.1 (total volume 0.635 ml, final concentrations: Ru complex 0.44 mM; NAD^+ 0.88 mM; formate 11.02 mM; molar ratio 1:2:25). ^1H NMR spectra were recorded at 310 K every 162 s until the completion of the reaction.
Molar ratios of NAD^+ and NADH were determined by integrating the peaks at 9.33 and 6.96 p.p.m. (NAD^+ and 1,4-NADH, respectively). The turnover number for the reaction was calculated as follows: […]
where In is the integral of the signal at n p.p.m. and [NAD^+]0 is the concentration of NAD^+ at the start of the reaction.

The subject of another series is CT-DNA. In words: Thermal stability (melting temperature) of CT-DNA by UV-Vis. Format: binding, calf. To be noted: for Tm: CT-DNA, 1:3 complex:base pairs, 2 mM cacodylate pH 7.4, 2 h 310 K; for ΔTm: versus free DNA. The procedure:
Supplementary Table 6: Melting temperature (Tm) of CT-DNA in the presence of 8 or complex 2 (ratio 1:3, complex: base pairs-DNA). The reactions were carried out in cacodylate buffer (2 mM, pH 7.4), and samples incubated for 2 h at 310 K. […]
a variation in melting temperature between free DNA and DNA in the presence of the corresponding complex. * […] from free DNA using a T-test analysis. ** p < 0.01 from free DNA using a T-test analysis […]
Thermal stability of CT-DNA
The melting temperature of CT-DNA in the presence and absence of complex 2 [(p-cym)Ru(TsEn)Cl] was determined by UV-Vis spectroscopy (Supplementary Table 6). Higher melting temperatures indicate increased stabilization of the DNA, which is the effect produced by DNA-intercalators and often by direct metal coordination to […]
the nucleobases.11 Destabilization of DNA can result in a decrease of the melting […]
In the presence of complex 8, the melting temperature of CT-DNA increased In agreement with the literature, 12 by 14 K, in 2 mM NaCl, 2 mM cacodylate buffer.
This increase is due to Ru binding to DNA as well as intercalation. 12 However, upon increasing the chloride concentration by ca. 10x (20 mM NaCl) the melting temperature of CT-DNA in the presence of complex 8, increased only by 7 K. This effect has previously been reported and it is attributed to the partial inhibition of hydrolysis, and, therefore, inhibition of coordination to DNA. 12, 13
Experiments performed in the presence of complex 2, in 2 mM cacodylate buffer and […]
NaCl, no decrease of the melting temperature was observed. […]

In series [3] the test system is A2780 human ovarian cancer cells. In words: In vitro growth inhibition assay (SRB), A2780. Type of series: cell-based. The following applies: A2780, 24 h drug exposure, no formate. The procedure:
A2780 human ovarian carcinoma and MRC5 human fetal lung fibroblasts were obtained from the European Collection of Cell Cultures. Both cell lines were grown in Roswell Park Memorial Institute medium (RPMI-1640) supplemented with 10% of fetal calf serum, 1% of 2 mM glutamine and 1% penicillin/streptomycin. All cells were grown as adherent monolayers at 310 K in a 5% CO2-humidified atmosphere and passaged at ca. 70–80% confluency.
The antiproliferative activity of complexes 1–8 was determined in A2780 ovarian cancer cells and MRC5 fibroblasts. Briefly, 96-well plates were used to seed 5,000 cells per well. The plates were left to pre-incubate with drug-free medium at 310 K for 48 h before adding different concentrations of the compounds to be tested. A drug exposure period of 24 h was allowed. After this, supernatants were removed by suction and each well was washed with PBS. A further 72 h were allowed for the cells to recover in drug-free medium at 310 K. The sulforhodamine B (SRB) assay was used to determine cell viability. IC50 values, as the concentration that causes 50% cell death, were determined as duplicates of triplicates in two independent sets of experiments and their s.d. were calculated.

In the next series the test system is A2780 cells. Put plainly: Cellular membrane integrity (CytoPainter flow cytometry). Type of series: cell-based, human. To be noted: A2780, complex 2 alone or with 2 mM sodium formate, 24 h. On the procedure:
Flow cytometry analysis of cellular membrane integrity of A2780 cells caused by exposure to complex 2 and sodium formate were carried out using the CytoPainter assay (Abcam) according to the manufacturer’s instructions. […] Cells were harvested using trypsin and stained in the dark using CytoPainter Red (Ex/Em 583/603 nm), which reacts with cell surface amines in compromised membranes. After staining, cell pellets were analysed in a Becton Dickinson FACScan Flow Cytometer.
Background: Flow cytometry measures light scatter and fluorescence of single cells or particles in a stream.

Structures are written as SMILES.

For `Cc1ccc(C(C)C)cc1.Cc1ccc(S(=O)(=O)[N-]CCN)cc1.[Cl-].[Ru+2]` [Complex 2, [(p-cym)Ru(TsEn)Cl]], the “Cell Ru” value in series [1] (A2780, 1/3 x IC50, 24 h drug exposure, no recovery time) was determined as 0.15 ± 0.04 ng x 106 cells; in series [1] (A2780, complex 2, formate 0 mM), 0.15 ± 0.03 ng x 106 cells; in series [1] (A2780, complex 2, formate 0.5 mM) it was 0.145 ± 0.009 ng x 106 cells; in series [1] (A2780, complex 2, formate 1 mM) it was 0.129 ± 0.005 ng x 106 cells; in series [1] (A2780, complex 2, formate 2 mM), 0.13 ± 0.02 ng x 106 cells. In series [1] (A2780, 24 h, 1/3 x IC50), the Cell accum. turned out to be 0.15 ng Ru/10^6 cells. The “dependence of cellular accumulation of ruthenium on amount of formate added” value in series [1] (A2780, complex 2 4.5 μM) is reported as “no significant dependence”. In addition, the “TOF D2O/MeOH-d4” value in series [2] (23% MeOH-d4/77% D2O) was determined as 2.88 ± 0.06 h⁻¹. Moreover, the “TOF D2O” value in series [2] (D2O) was found to be 1.58 ± 0.04 h⁻¹. For the same compound, the “decrease in the melting temperature of CT-DNA” value with CT-DNA (2 mM cacodylate buffer and 2 mM NaCl) was -269 °C. The Tm in the series on CT-DNA (2 mM NaCl) worked out at 47.2 ± 1.6 °C; in the series on CT-DNA (20 mM NaCl) it was 54.4 ± 0.7 °C. Further, the ΔTm in the series with CT-DNA (2 mM NaCl) is recorded as -2.4; with CT-DNA (20 mM NaCl) it was -4.9. Also, in series [3], the IC50 – broadly, the midpoint of a concentration-inhibition curve – stood at 13.6 ± 0.6 µM. Besides, the “cellular membrane integrity, FL2 fluorescence of CytoPainter red” value in the series with A2780 cells is listed as “low fluorescence”.
